Consider five compounds from ChEMBL document CHEMBL3779879, “Structural hybridization of three aminoglycoside antibiotics yields a potent broad-spectrum bactericide that eludes bacterial resistance enzymes” (2016).

In brackets after ≈: the same amount, converted by molar mass.

What all share (type): functional
Test [1] concerns Escherichia coli. Description: Antibacterial activity against Escherichia coli expressing APH(3')-Ib.
In test [2] the test system is Escherichia coli. Put plainly: Antibacterial activity against Escherichia coli expressing A-site methyltransferase ArmA.
Test [3] concerns Acinetobacter baumannii. Put plainly: Antibacterial activity against Acinetobacter baumannii expressing AAC(3)-I, APH(3')-VI, ANT(2'')-I.
A further test concerns Enterobacter cloacae. Put plainly: Antibacterial activity against Enterobacter cloacae expressing APH(3')-I, ANT(2'')-I, AAC(6').
Test [4] concerns Staphylococcus aureus. Put plainly: Antibacterial activity against Staphylococcus aureus expressing ANT(4')-I.
Test [5] concerns Pseudomonas aeruginosa. Put plainly: Antibacterial activity against Pseudomonas aeruginosa ATCC 27853 expressing APH(3')-IIa.
Test [6] deals with Staphylococcus aureus. Description: Antibacterial activity against Staphylococcus aureus expressing APH(3'/5'')-III.
Test [7] deals with Pseudomonas aeruginosa. Description: Antibacterial activity against Pseudomonas aeruginosa expressing ANT(4')-II.
In test [8] the test system is Staphylococcus aureus. Description: Antibacterial activity against Staphylococcus aureus expressing AAC(6')/APH(2'').
In test [9] the test system is Pseudomonas aeruginosa. Description: Antibacterial activity against Pseudomonas aeruginosa expressing AAC(6')-II.
Test [10] deals with Escherichia coli. Description: Antibacterial activity against Escherichia coli ATCC 25922.
Test [11] deals with Staphylococcus aureus. Description: Antibacterial activity against Staphylococcus aureus ATCC 29213.
Another test concerns Klebsiella pneumoniae. Put plainly: Antibacterial activity against Klebsiella pneumoniae ATCC 10031.
Test [12] concerns Acinetobacter baumannii. Put plainly: Antibacterial activity against Acinetobacter baumannii.
For test [13], the system named is Escherichia coli. Description: Antibacterial activity against Escherichia coli expressing AAC(3)-IV.
In test [14] the test system is Escherichia coli. Put plainly: Antibacterial activity against Escherichia coli expressing ANT(2'')-I.

What is called MIC is the least concentration at which growth counts as inhibited. Read a high MIC as a less susceptible organism. Consider `NCC[C@H](O)C(=O)N[C@@H]1C[C@H](N)[C@@H](O[C@H]2O[C@H](CN)[C@@H](O)[C@H](O)[C@H]2N)[C@H](O[C@@H]2O[C@H](CO)[C@@H](O)[C@H]2O)[C@H]1O`, for which the MIC against Escherichia coli [1] is 1 µg/mL (≈ 1.8 µM); in the test with Escherichia coli [2], 2 µg/mL (≈ 3.6 µM); against Acinetobacter baumannii [3] it was greater than 32 µg/mL; in the test with Enterobacter cloacae it was 32 µg/mL (≈ 57.6 µM); against Staphylococcus aureus [4], greater than 32 µg/mL; in the test with Pseudomonas aeruginosa [5], greater than 32 µg/mL. Further, the MIC is greater than 32 µg/mL in the test on Staphylococcus aureus [6]; greater than 32 µg/mL against Pseudomonas aeruginosa [7]; greater than 32 µg/mL against Staphylococcus aureus [8]; greater than 32 µg/mL in the test with Pseudomonas aeruginosa [9]; 2 µg/mL (≈ 3.6 µM) in the test with Escherichia coli [10]; 8 µg/mL (≈ 14.4 µM) in the test with Staphylococcus aureus [11]. Besides, the MIC with Klebsiella pneumoniae was 1 µg/mL (≈ 1.8 µM); against Acinetobacter baumannii [12], 1 µg/mL (≈ 1.8 µM); with Escherichia coli [13], 2 µg/mL (≈ 3.6 µM); in the test on Escherichia coli [14], 4 µg/mL (≈ 7.2 µM).

Take `NCC1=CC[C@@H](N)[C@@H](O[C@H]2[C@H](O[C@@H]3O[C@H](CO)[C@@H](O)[C@H]3O)[C@@H](O)[C@H](N)C[C@@H]2N)O1`: the MIC was 64 µg/mL (≈ 152 µM) with Escherichia coli [1]; 64 µg/mL (≈ 152 µM) against Escherichia coli [2]; greater than 64 µg/mL in the test on Acinetobacter baumannii [3]; greater than 64 µg/mL with Enterobacter cloacae; 16 µg/mL (≈ 38.1 µM) against Staphylococcus aureus [4]; 16 µg/mL (≈ 38.1 µM) in the test on Pseudomonas aeruginosa [5]. Also, the MIC in the test with Staphylococcus aureus [6] was greater than 64 µg/mL; in the test on Pseudomonas aeruginosa [7], 64 µg/mL (≈ 152 µM); in the test with Staphylococcus aureus [8] it was greater than 64 µg/mL; with Pseudomonas aeruginosa [9], greater than 64 µg/mL; in the test with Escherichia coli [10] it was 64 µg/mL (≈ 152 µM); in the test on Staphylococcus aureus [11], 16 µg/mL (≈ 38.1 µM). Moreover, the MIC in the test with Klebsiella pneumoniae was 16 µg/mL (≈ 38.1 µM); with Acinetobacter baumannii [12], greater than 64 µg/mL; with Escherichia coli [13] it was greater than 64 µg/mL; in the test on Escherichia coli [14] it was greater than 64 µg/mL.

For `NCC[C@H](O)C(=O)N[C@@H]1C[C@H](N)[C@@H](O[C@H]2OC(CN)=CC[C@H]2N)[C@H](O[C@@H]2O[C@H](CO)[C@@H](O)[C@H]2O)[C@H]1O`, the MIC was 4 µg/mL (≈ 7.67 µM) against Escherichia coli [1]; 8 µg/mL (≈ 15.3 µM) against Escherichia coli [2]; 8 µg/mL (≈ 15.3 µM) against Acinetobacter baumannii [3]; greater than 64 µg/mL with Enterobacter cloacae; 8 µg/mL (≈ 15.3 µM) in the test on Staphylococcus aureus [4]; 4 µg/mL (≈ 7.67 µM) against Pseudomonas aeruginosa [5]. For the same compound, the MIC in the test on Staphylococcus aureus [6] worked out at 16 µg/mL (≈ 30.7 µM); in the test on Pseudomonas aeruginosa [7] it was 8 µg/mL (≈ 15.3 µM); against Staphylococcus aureus [8], 16 µg/mL (≈ 30.7 µM); in the test with Pseudomonas aeruginosa [9], 16 µg/mL (≈ 30.7 µM); against Escherichia coli [10] it was 8 µg/mL (≈ 15.3 µM); in the test with Staphylococcus aureus [11] it was 8 µg/mL (≈ 15.3 µM). The MIC came out at 4 µg/mL (≈ 7.67 µM) against Klebsiella pneumoniae, 4 µg/mL (≈ 7.67 µM) against Acinetobacter baumannii [12], 8 µg/mL (≈ 15.3 µM) in the test on Escherichia coli [13] and 8 µg/mL (≈ 15.3 µM) in the test with Escherichia coli [14].

In the case of `N[C@@H]1CC=C(CO)O[C@@H]1O[C@H]1[C@H](O[C@@H]2O[C@H](CO)[C@@H](O)[C@H]2O)[C@@H](O)[C@H](N)C[C@@H]1N`, the MIC in the test with Escherichia coli [1], against Escherichia coli [2], against Acinetobacter baumannii [3], against Enterobacter cloacae, against Staphylococcus aureus [4] and in the test with Pseudomonas aeruginosa [5] was greater than 64 µg/mL throughout. Further, the MIC against Staphylococcus aureus [6], with Pseudomonas aeruginosa [7], against Staphylococcus aureus [8], with Pseudomonas aeruginosa [9], against Escherichia coli [10] and in the test on Staphylococcus aureus [11] was greater than 64 µg/mL throughout. For the same compound, the MIC in the test on Klebsiella pneumoniae, in the test on Acinetobacter baumannii [12], in the test on Escherichia coli [13] and against Escherichia coli [14] was greater than 64 µg/mL throughout.

Take `CN[C@@H](C)[C@@H]1CC[C@@H](N)[C@@H](O[C@H]2[C@H](O)[C@@H](O[C@H]3OC[C@](C)(O)[C@H](NC)[C@H]3O)[C@H](N)C[C@@H]2N)O1`: the MIC was 0.25 µg/mL (≈ 0.523 µM) in the test on Escherichia coli [1]; greater than 64 µg/mL against Escherichia coli [2]; greater than 64 µg/mL in the test with Acinetobacter baumannii [3]; 32 µg/mL (≈ 67 µM) in the test on Enterobacter cloacae; 0.5 µg/mL (≈ 1.05 µM) in the test with Staphylococcus aureus [4]; 0.5 µg/mL (≈ 1.05 µM) with Pseudomonas aeruginosa [5]. For the same compound, the MIC with Staphylococcus aureus [6] was 0.5 µg/mL (≈ 1.05 µM); with Pseudomonas aeruginosa [7], 2 µg/mL (≈ 4.19 µM); in the test with Staphylococcus aureus [8] it was greater than 64 µg/mL; in the test with Pseudomonas aeruginosa [9], 32 µg/mL (≈ 67 µM); in the test on Escherichia coli [10] it was 0.5 µg/mL (≈ 1.05 µM); with Staphylococcus aureus [11], 0.5 µg/mL (≈ 1.05 µM). Besides, the MIC was found to be 0.25 µg/mL (≈ 0.523 µM) against Klebsiella pneumoniae, 2 µg/mL (≈ 4.19 µM) in the test on Acinetobacter baumannii [12], 16 µg/mL (≈ 33.5 µM) with Escherichia coli [13] and 64 µg/mL (≈ 134 µM) in the test on Escherichia coli [14].
